Experimental data reported in PubChem BioAssay (NCI).
Where “and” joins values, the source holds several entries; their conditions need not be identical. Equal values may be shown once.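 1) Cells in 96-well plates. 2) Compound, 48 h, 5 concentrations. 3) Linear interpolation between surrounding doses. 4) Unreached endpoint = highest concentration. At the GI50, growth is halved. TGI is the concentration that stops growth completely.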

Columns and labels:
Assay in all cases: NCI-60 cell line screen, 48 h
CAKI-1 renal = system: CAKI-1 renal
HCC-2998 colon = system: HCC-2998 colon
HCT-15 colon = system: HCT-15 colon
HS 578T breast = system: HS 578T breast
K-562 leukemia = system: K-562 leukemia
RPMI-8226 leukemia = system: RPMI-8226 leukemia
RXF 393 renal = system: RXF 393 renal
SN12C renal = system: SN12C renal
SW-620 colon = system: SW-620 colon
UACC-62 melanoma = system: UACC-62 melanoma

| SMILES | GI50 (CAKI-1 renal) | TGI (CAKI-1 renal) | GI50 (HCC-2998 colon) | TGI (HCC-2998 colon) | GI50 (HCT-15 colon) | TGI (HCT-15 colon) | GI50 (HS 578T breast) | TGI (HS 578T breast) | GI50 (K-562 leukemia) | TGI (K-562 leukemia) | GI50 (RPMI-8226 leukemia) | TGI (RPMI-8226 leukemia) | GI50 (RXF 393 renal) | TGI (RXF 393 renal) | GI50 (SN12C renal) | TGI (SN12C renal) | GI50 (SW-620 colon) | TGI (SW-620 colon) | GI50 (UACC-62 melanoma) | TGI (UACC-62 melanoma) |
| --- | --- | --- | --- | --- | --- | --- | --- | --- | --- | --- | --- | --- | --- | --- | --- | --- | --- | --- | --- | --- |
| CC/C(=C/c1ccc(OC)cc1)[N+](=O)[O-] | 1.67 µM | 3.33 µM | 1.89 µM | 3.42 µM | 1.48 µM | 3.08 µM | 3.84 µM | 22.2 µM | 1.95 µM | > 100 µM | 1.76 µM | 5.31 µM | 1.85 µM | 3.39 µM | 2.28 µM | 5.44 µM | 1.93 µM | 3.85 µM | 2.04 µM | 4.67 µM |
| N#Cc1cnn(C(=O)c2nn(-c3ccc(Cl)cc3)cc2O)c1N | 0.259 µM | 1.47 µM | 0.623 µM | 18 µM | 0.338 µM | 13.1 µM | 0.192 µM | 3.43 µM | 0.253 µM | – | 0.21 µM | 0.657 µM | 0.161 µM | 3.91 µM | 0.342 µM | 17.5 µM | 0.521 µM | 21 µM | 0.303 µM | 2.22 µM |
| COC(=O)C(=O)C(C(=O)C(=O)Nc1cc(C)ccc1C)c1nc2ccccc2[nH]c1=O (stereo not given) | – | > 100 µM | – | > 100 µM | – | > 100 µM | – | > 100 µM | – | > 100 µM | – | 71.4 µM | – | > 100 µM | – | > 100 µM | – | > 100 µM | – | > 100 µM |
| C=C(CN1CCN(c2cc(C(F)(F)F)cc(C(F)(F)F)c2)CC1)c1ccc(C(=O)Nc2ccccc2N)cc1 | 2.81 µM | 42.3 µM | 4.28 µM | 26.4 µM | 3.96 µM | > 100 µM | 4.81 µM | 35.6 µM | 1.69 µM | > 100 µM | 1.65 µM | 4.22 µM | 2.02 µM | 7.71 µM | 2.47 µM | 13.4 µM | 6.95 µM | 34.9 µM | 4.21 µM | > 100 µM |
| O=C(/C=C/c1ccco1)Nc1ncc(Cc2cc(Cl)ccc2Cl)s1 | 0.05 µM | > 100 µM | 0.208 µM | > 100 µM | 0.0463 µM | > 100 µM | 0.0427 µM | > 100 µM | 0.0344 µM | > 100 µM | 0.0634 µM | > 100 µM | 0.0328 µM | 0.303 µM | 0.117 µM | > 100 µM | 0.0417 µM | > 100 µM | 0.0487 µM | > 100 µM |
| CCc1ccc([OH2+])c(C(=O)[O-])c1.CCc1ccc([OH2+])c(C(=O)[O-])c1.CCc1ccc([OH2+])c(C(=O)[O-])c1.CCc1ccc([OH2+])c(C(=O)[O-])c1.[Cu+2].[Cu+2] | 24.9 µM | > 82.4 µM | 64.8 µM | > 100 µM | > 88.2 µM | > 100 µM | > 100 µM | > 100 µM | 38.1 µM | > 73.9 µM | 41.3 µM | > 100 µM | > 46.8 µM | > 94.5 µM | 98.3 µM | > 100 µM | > 100 µM | > 100 µM | 70.5 µM | > 100 µM |
| NS(=O)(=O)c1cccc(Nc2cc(-c3ccc(F)cc3)[nH]n2)c1 | 12.4 µM | > 25 µM | > 25 µM | > 25 µM | 19.3 µM | > 25 µM | > 20.8 µM | > 25 µM | > 25 µM | > 25 µM | > 25 µM | > 25 µM | 17.8 µM | > 25 µM | > 20.7 µM | > 25 µM | > 23.2 µM | > 25 µM | > 21.1 µM | > 25 µM |
| COc1cc(/C=N/NC(=O)c2cnn3c2NC(c2ccccc2)C3)ccc1OCc1ccccc1 (stereo not given) | 0.597 µM | 3.99 µM | 2.35 µM | 24.5 µM | 0.461 µM | 6.68 µM | 0.908 µM | 3.3 µM | 0.293 µM | 15.3 µM | 0.955 µM | 23.6 µM | 1.29 µM | 3.96 µM | 2.26 µM | 11 µM | 0.569 µM | 2.76 µM | 0.679 µM | 7.14 µM |
| C=C1C(=O)C23C(O)CC4C(C)(C)CCC(O)C4(C)C2CC(OC(C)=O)C1[C@H]3O (stereo not given in full) | – | 9.39 µM | – | 14.8 µM | – | 6 µM | – | 53.7 µM | – | 10.1 µM | – | > 32 µM | – | 5.26 µM | – | 12 µM | – | 2.53 µM | – | – |
| CCCCCCCCCC(=O)Oc1ccc(/C(=C(/C)c2ccccc2)c2ccc(OCCN3CCCC3)cc2)cc1 | 6.77 µM | 13.9 µM | 8.66 µM | 17.2 µM | 6.69 µM | 13.1 µM | 9.55 µM | 32.2 µM | – | – | 9.13 µM | 21 µM | 6.95 µM | 14.1 µM | 9.15 µM | 17.9 µM | 8.57 µM | 15.6 µM | 9.18 µM | 16.8 µM |
| CC(C)(C)n1cc(-c2ccnc(NCCCNS(=O)(=O)c3cccc4ccccc34)c2)c(-c2cccc(O)c2)n1 | 2.49 µM | 7.04 µM | 1.87 µM | 3.37 µM | 1.53 µM | 3.64 µM | 1.89 µM | 4.8 µM | 1.48 µM | > 100 µM | – | – | 1.52 µM | 3.06 µM | 1.73 µM | 3.33 µM | 1.81 µM | 3.62 µM | 1.67 µM | 3.28 µM |
| COc1ccc(/C=C\c2cc(OC)c(OC)c(OC)c2)cc1NC(=O)/C=C/c1cc(OC)c(OC)c(OC)c1 | 2.94 µM | > 100 µM | 3.73 µM | > 100 µM | 5.14 µM | > 100 µM | 5.94 µM | > 100 µM | – | – | 2.9 µM | > 100 µM | 2.66 µM | 8.96 µM | 4.56 µM | > 100 µM | 5.2 µM | > 100 µM | 2.8 µM | > 100 µM |
| COc1cc2c3c(c4cc(OC)c(OC)cc4c2cc1OC)CN1CCC[C@H]1C3 | – | 0.481 µM and 0.926 µM | 0.0356 µM and < 0.01 µM | 0.3 µM and 0.656 µM | 0.0463 µM and 0.0111 µM | – | – | > 29.2 µM | – | > 10 µM and 19.3 µM | 0.0906 µM and < 0.0175 µM | 0.435 µM and 2.13 µM | 0.00487 µM | 0.0931 µM | 0.0429 µM and < 0.0105 µM | 1.3 µM and 0.374 µM | 0.0734 µM and < 0.0124 µM | – | – | – |
